Experimental data reported in ChEMBL document CHEMBL4393695, “Thiazole orange - Spermine conjugate: A potent human telomerase inhibitor comparable to BRACO-19” (Eur J Med Chem, 2019).
Calls of active or inactive are those of the source. The rule behind the calls is not given here.

Key:
HeLa [1] = assay: Inhibition of DNA polymerase activity in human HeLa cell lysate at 6.25 uM in presence of [32P]-labeled template primer by TRAP assay; type: subcellular
Quadruplex DNA [2] = assay: Binding affinity to G-quadruplex G1 DNA (unknown origin) assessed as melting temperature at compound to DNA ratio of 4:1 in presence of 150 mM Na+ by circular dichroism thermal denaturation analysis (reference value: 57.4 degC); type: nucleic-acid assay
Quadruplex DNA [3] = assay: Binding affinity to G-quadruplex G1 DNA (unknown origin) assessed as melting temperature at compound to DNA ratio of 4:1 in presence of 100 mM K+ by circular dichroism thermal denaturation analysis (Rvb= 52.6 degC); type: nucleic-acid assay
[4] = molecular target: Telomerase reverse transcriptase (Homo sapiens) (UniProt O14746); assay: Inhibition of telomerase activity in human HeLa cell lysate at 6.25 uM in presence of [32P]-labeled template primer by TRAP assay; type: subcellular
Chain of Telomerase reverse transcriptase (Homo sapiens) (O14746 whole entry): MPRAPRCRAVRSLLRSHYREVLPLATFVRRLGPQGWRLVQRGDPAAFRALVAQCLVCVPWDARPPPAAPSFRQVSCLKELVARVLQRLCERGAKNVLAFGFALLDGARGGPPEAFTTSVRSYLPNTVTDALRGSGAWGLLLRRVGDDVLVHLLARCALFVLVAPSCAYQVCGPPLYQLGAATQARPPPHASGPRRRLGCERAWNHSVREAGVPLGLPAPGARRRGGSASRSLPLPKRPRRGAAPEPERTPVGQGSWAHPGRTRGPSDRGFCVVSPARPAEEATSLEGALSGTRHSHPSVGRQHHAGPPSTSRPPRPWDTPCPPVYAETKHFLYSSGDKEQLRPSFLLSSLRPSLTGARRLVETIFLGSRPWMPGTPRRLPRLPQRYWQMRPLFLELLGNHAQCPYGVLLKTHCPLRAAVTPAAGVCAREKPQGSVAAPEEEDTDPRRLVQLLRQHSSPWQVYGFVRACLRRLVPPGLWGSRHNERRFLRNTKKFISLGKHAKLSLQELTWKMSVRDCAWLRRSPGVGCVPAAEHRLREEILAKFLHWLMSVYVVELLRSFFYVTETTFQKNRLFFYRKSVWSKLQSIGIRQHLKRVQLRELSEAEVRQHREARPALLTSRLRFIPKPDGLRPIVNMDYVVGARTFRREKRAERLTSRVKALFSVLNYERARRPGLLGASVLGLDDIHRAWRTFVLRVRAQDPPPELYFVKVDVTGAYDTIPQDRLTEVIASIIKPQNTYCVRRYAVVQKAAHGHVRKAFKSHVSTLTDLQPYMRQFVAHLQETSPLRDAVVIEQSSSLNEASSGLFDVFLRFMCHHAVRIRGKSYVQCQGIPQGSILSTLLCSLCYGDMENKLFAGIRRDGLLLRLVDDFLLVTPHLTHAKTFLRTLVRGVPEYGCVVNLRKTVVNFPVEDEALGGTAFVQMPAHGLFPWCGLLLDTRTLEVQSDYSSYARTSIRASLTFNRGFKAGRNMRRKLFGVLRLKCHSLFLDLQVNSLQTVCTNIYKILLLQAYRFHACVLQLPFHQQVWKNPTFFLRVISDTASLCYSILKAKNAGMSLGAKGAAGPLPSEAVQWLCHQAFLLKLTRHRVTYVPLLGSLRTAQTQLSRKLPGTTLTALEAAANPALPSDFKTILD

[5] = molecular target: Telomerase reverse transcriptase (Homo sapiens) (UniProt O14746); assay: Inhibition of telomerase activity in human HeLa cell lysate at 10 uM in presence of [32P]-labeled template primer by TRAP assay; type: subcellular
Quadruplex DNA [6] = assay: Binding affinity to G-quadruplex G2 DNA (unknown origin) assessed as increase in deltaTm at compound to DNA ratio of 10:1 by fluorescence thermal denaturation analysis; type: nucleic-acid assay
[7] = Ratio of Kd for human G-quadruplex G1 DNA to Kd for 17 mer duplex D1 DNA (unknown origin) by flourimetric titration analysis
[8] = molecular target: Telomerase reverse transcriptase (Homo sapiens) (UniProt O14746); assay: Inhibition of telomerase activity in human HeLa cell lysate at <10 uM in presence of [32P]-labeled template primer by TRAP assay; type: subcellular
HeLa [9] = assay: Inhibition of DNA polymerase activity in human HeLa cell lysate at <10 uM in presence of [32P]-labeled template primer by TRAP assay; type: subcellular
HeLa [10] = assay: Inhibition of DNA polymerase activity in human HeLa cell lysate at 10 uM in presence of [32P]-labeled template primer by TRAP assay; type: subcellular
dsDNA = assay: Binding affinity to 17 mer duplex D1 DNA (unknown origin) assessed as equilibrium dissociation constant at 0.5 uM incubated for 30 mins under dark condition by fluorometric titration analysis; type: nucleic-acid assay
[11] = molecular target: Telomerase reverse transcriptase (Homo sapiens) (UniProt O14746); assay: Inhibition of telomerase activity in human HeLa cell lysate at 0.625 uM in presence of [32P]-labeled template primer by TRAP assay; type: subcellular
Quadruplex DNA [12] = assay: Binding affinity to human G-quadruplex G1 DNA assessed as increase in fluorescence at 0.5 uM incubated for 30 mins in dark by fluorescence titration analysis relative to control; type: nucleic-acid assay
Quadruplex DNA [13] = assay: Binding affinity to human G-quadruplex G1 DNA assessed as equilibrium dissociation constant at 0.5 uM incubated for 30 mins under dark condition by fluorometric titration analysis; type: nucleic-acid assay
[14] = molecular target: Telomerase reverse transcriptase (Homo sapiens) (UniProt O14746); settings: HeLa, Lysate, 50 uM
Description: Inhibition of telomerase activity in human HeLa cell lysate at 50 uM in presence of [32P]-labeled template primer by TRAP assay

HeLa [15] = assay: Inhibition of DNA polymerase activity in human HeLa cell lysate at 50 uM in presence of [32P]-labeled template primer by TRAP assay; type: subcellular
[16] = molecular target: Telomerase reverse transcriptase (Homo sapiens) (UniProt O14746); settings: HeLa, Lysate, 10 to 100 uM
Description: Inhibition of telomerase activity in human HeLa cell lysate at 10 to 100 uM in presence of [32P]-labeled template primer by TRAP assay

HeLa [17] = settings: Homo sapiens, Lysate, 10 to 100 uM
Description: Inhibition of DNA polymerase activity in human HeLa cell lysate at 10 to 100 uM in presence of [32P]-labeled template primer by TRAP assay

Quadruplex DNA [18] = assay: Binding affinity to G-quadruplex G2 DNA (unknown origin) assessed as change in melting temperature at compound to DNA ratio of 7:1 by fluorescence thermal denaturation analysis; type: nucleic-acid assay
HeLa [19] = assay: Inhibition of DNA polymerase activity in human HeLa cell lysate at 0.625 to 10 uM in presence of [32P]-labeled template primer by TRAP assay; type: subcellular
[20] = molecular target: Telomerase reverse transcriptase (Homo sapiens) (UniProt O14746); assay: Inhibition of telomerase activity in human HeLa cell lysate in presence of [32P]-labeled template primer by TRAP assay; type: subcellular
HeLa [21] = assay: Inhibition of DNA polymerase activity in human HeLa cell lysate at 0.156 to 2.5 uM in presence of [32P]-labeled template primer by TRAP assay; type: subcellular
[22] = molecular target: Telomerase reverse transcriptase (Homo sapiens) (UniProt O14746); assay: Inhibition of telomerase activity in human HeLa cell lysate at 0.156 to 2.5 uM in presence of [32P]-labeled template primer by TRAP assay; type: subcellular
HeLa [23] = assay: Inhibition of DNA polymerase activity in human HeLa cell lysate at 6.25 uM in presence of [32P]-labeled template primer by TRAP assay relative to control; type: subcellular
HeLa [24] = assay: Inhibition of DNA polymerase activity in human HeLa cell lysate at 5 uM in presence of [32P]-labeled template primer by TRAP assay; type: subcellular
[25] = molecular target: Telomerase reverse transcriptase (Homo sapiens) (UniProt O14746); assay: Inhibition of telomerase activity in human HeLa cell lysate at 0.078 uM in presence of [32P]-labeled template primer by TRAP assay; type: subcellular
[26] = molecular target: Telomerase reverse transcriptase (Homo sapiens) (UniProt O14746); assay: Inhibition of telomerase activity in human HeLa cell lysate at 5 uM in presence of [32P]-labeled template primer by TRAP assay; type: subcellular
[27] = molecular target: Telomerase reverse transcriptase (Homo sapiens) (UniProt O14746); assay: Inhibition of telomerase activity in human HeLa cell lysate at 6.25 uM in presence of [32P]-labeled template primer by TRAP assay relative to control; type: subcellular
Quadruplex DNA [28] = assay: Ratio of thiazole orange Kd to compound Kd for human G-quadruplex G1 DNA at 0.5 uM incubated for 30 mins in dark by fluorimetric titration analysis; type: nucleic-acid assay

| Structure (SMILES) | inhibition (HeLa [1]) | Tm (Quadruplex DNA [2]) | Tm (Quadruplex DNA [3]) | inhibition [4] | Activity (Quadruplex DNA [6]) | Ratio [7] | fold change (FC) (Quadruplex DNA [12]) | further results |
| --- | --- | --- | --- | --- | --- | --- | --- | --- |
| O=C1c2ccc3c4ccc5c6c(ccc(c7ccc(c2c37)C(=O)N1CCN1CCCCC1)c64)C(=O)N(CCN1CCCCC1)C5=O |  |  |  |  |  |  |  | inhibition [5]: inactive |
| C[n+]1ccc(-c2c3nc(c(-c4cc[n+](C)cc4)c4ccc([nH]4)c(-c4cc[n+](C)cc4)c4ccc([nH]4)c(-c4cc[n+](C)cc4)c4nc2C=C4)C=C3)cc1 |  |  |  |  |  |  |  | inhibition [14]: Active; inhibition (HeLa [15]): Active |
| C[n+]1c(/C=C2\C=CN(CC(=O)NCCOCCN3CCCCC3)c3ccccc32)sc2ccccc21 | inactive | 60.5 °C | 64.9 °C | Active | Active | 3.57 | 200 | Kd (dsDNA): 710 nM; Kd (Quadruplex DNA [13]): 2180 nM |
| CN1C=C/C(=C\c2sc3ccccc3[n+]2C)c2ccccc21 |  |  |  |  |  |  |  | Kd (dsDNA): 400 nM; Kd (Quadruplex DNA [13]): 870 nM |
| NCCCNCCCCNCCCN |  |  |  |  |  |  |  | inhibition [16]: inactive; inhibition (HeLa [17]): inactive |
| C/C(=C\C(=O)Nc1ccccc1C(=O)O)c1ccc2ccccc2c1 |  |  |  |  |  |  |  | inhibition [14]: Active |
| CN1/C(=C/c2cc[n+](C)c3ccccc23)Sc2ccccc21 |  | 60 °C | 63.4 °C | Active |  | 2.18 | 340 |  |
| C[n+]1c(/C=C2\C=CN(CC(=O)NCCCNCCCCNCCCN)c3ccccc32)sc2ccccc21 |  | 65 °C | 71 °C |  |  | 2.33 | 200 | inhibition (HeLa [21]): inactive; ΔTm (Quadruplex DNA [18]): 6.9 °C; inhibition [22]: Active; inhibition (HeLa [23]): 100%; inhibition (HeLa [24]): Active; inhibition [25]: inactive; inhibition (HeLa [10]): 100%; KdH (dsDNA): 0.03 µM; KdL (dsDNA): 0.65 µM; inhibition [26]: 100%; inhibition [27]: 100%; inhibition [5]: 100%; Ratio (Quadruplex DNA [28]): 12.4; KdH (Quadruplex DNA [13]): 0.07 µM; KdL (Quadruplex DNA [13]): 1.73 µM |

More lines, main results first:

| inhibition (HeLa [1]) | Tm (Quadruplex DNA [2]) | Tm (Quadruplex DNA [3]) | inhibition [4] | Activity (Quadruplex DNA [6]) | Ratio [7] | fold change (FC) (Quadruplex DNA [12]) | Structure (SMILES) | further results |
| --- | --- | --- | --- | --- | --- | --- | --- | --- |
| inactive | 57.1 °C | 54 °C | inactive |  |  |  | C[n+]1c(/C=C2\C=CN(CC(=O)O)c3ccccc32)sc2ccccc21 |  |
| inactive | 61.5 °C | 60.5 °C | Active | Active | 2.8 | 200 | C[n+]1c(/C=C2\C=CN(CC(=O)NCCCNCCCN)c3ccccc32)sc2ccccc21 | inhibition [8]: Active; inhibition (HeLa [9]): inactive; inhibition (HeLa [10]): Active; KdH (dsDNA): 0.05 µM; KdL (dsDNA): 0.92 µM; inhibition [5]: Active; inhibition [11]: Active; KdH (Quadruplex DNA [13]): 0.14 µM; KdL (Quadruplex DNA [13]): 0.95 µM |
| inactive | 56 °C | 58.7 °C | inactive | Active |  |  | C[n+]1c(/C=C2\C=CN(CC(=O)NCCOCCN)c3ccccc32)sc2ccccc21 |  |
| inactive | 57.5 °C | 59.2 °C | inactive | Active |  |  | C[n+]1c(/C=C2\C=CN(CC(=O)NCCN)c3ccccc32)sc2ccccc21 |  |
| inactive | 60 °C | 62.3 °C | Active | Active |  |  | C[n+]1c(/C=C2\C=CN(CC(=O)NCCCCCCN)c3ccccc32)sc2ccccc21 |  |
| inactive | 60.5 °C | 59.7 °C | Active | Active | 2.7 | 200 | C[n+]1c(/C=C2\C=CN(CC(=O)NCCOCCN3CCCC3)c3ccccc32)sc2ccccc21 | Kd (dsDNA): 610 nM; Kd (Quadruplex DNA [13]): 1650 nM |
| inactive | 58.5 °C | 62.4 °C | Active | Active |  |  | C[n+]1c(/C=C2\C=CN(CC(=O)NCCNCCNCCN)c3ccccc32)sc2ccccc21 | inhibition [8]: Active; inhibition (HeLa [9]): inactive; inhibition [5]: Active; inhibition [11]: inactive |
| inactive | 57 °C | 59.4 °C | inactive | Active |  |  | C[n+]1c(/C=C2\C=CN(CC(=O)NCCOCCOCCOCCN)c3ccccc32)sc2ccccc21 |  |
| inactive | 62.5 °C | 69.4 °C | Active |  | 0.79 | 200 | C[n+]1c(/C=C2\C=CN(CC(=O)NCCN3CCCC3)c3ccccc32)sc2ccccc21 | ΔTm (Quadruplex DNA [18]): 7.1 °C; inhibition (HeLa [19]): inactive; EC [20]: 2.5 µM; Kd (dsDNA): 380 nM; KdH (Quadruplex DNA [13]): 0.3 µM; KdL (Quadruplex DNA [13]): 1.77 µM |
| inactive | 56.5 °C | 60.2 °C | inactive | Active |  |  | C[n+]1c(/C=C2\C=CN(CC(=O)NCCCN)c3ccccc32)sc2ccccc21 |  |
| inactive | 56 °C | 64 °C | Active | Active | 4.18 | 200 | C[n+]1c(/C=C2\C=CN(CC(=O)NCCN3CCCCC3)c3ccccc32)sc2ccccc21 | inhibition (HeLa [19]): inactive; EC [20]: 5 µM; Kd (dsDNA): 270 nM; Kd (Quadruplex DNA [13]): 1130 nM |
